Experiments:
[1] = Pharmacokinetics in rats after a single intravenous administration
Procedure: Sample separation was carried out on a CSH C18 Column (3.0 × 75 mm, 1.7 μm). The mobile phase consisted of Eluent A (0.1% aqueous formic acid) and Eluent B (acetonitrile: methanol, 80:20, v/v) at a flow rate of 0.4 mL min^−1. […] The column temperature was set to 35 °C. The injection volume was 5 μL. The optimized spectrometric parameters were set as follows: a capillary voltage of 4 kV, gas temperature of 300 °C, gas flow rate of 5 L min^−1, nebulizer of 45 Psi, sheath gas temperature of 250 °C, and sheath gas flow rate of 10 L min^−1. The UPLC-MS/MS data were acquired and processed using the Mass Hunter MS Optimizer software (version B.07.00). Detection was performed under multiple reaction monitoring (MRM) mode with the positive-ion electrospray-ionization (ESI) mode.
For the pharmacokinetic analyses, five rats were administered at a dose of 4.8 mg kg^−1 body weight via the caudal vein.
The whole blood samples were immediately centrifuged at 13,000 rpm for 5 min upon collection, and the supernatants were stored at −80 °C until analysis.
Obtained plasma (50 μL) was thawed and spiked with 50 μL of the IS working solution (50 ng mL^−1). The mixture was deproteinized and extracted using 1 mL of acetonitrile by using a vortex for 2 min.

CYP2C9 = target: T1, CYP2C9 (Homo sapiens, UniProt P11712); experiment: IC50 assessment using recombinant human CYPs (probe tolbutamide); format: in vitro ADME; conditions: recombinant CYP 0.025 μM, tolbutamide 0.05 mg mL^−1, 37 °C, 30 min, n = 3; read-out: IC50 against CYP2C9
T1 construct: purchased IPHASE
Procedure: Figure 12 The inhibition curves for TNBG-5602 against cytochrome enzymes (mean ± SD, n = 3). TNBG-5602 (final concentrations of 0, 0.01, 0.1, 1.0, 10.0, and 100 μM) was incubated with recombinant cytochrome P450s (final concentration 0.025 μM) and the specific probe substates (final concentration 0.05 mg mL^−1) with NADPH to initiate the metabolic reaction. The incubations were carried out at 37 °C for 30 min with a total volume of 200 μL. The CYP isoforms tested were 2D6 (dextromethorphan), 2C9 (tolbutamide), and 3A4 (testosterone). […] The IC50 values were calculated using the GraphPad Prism statistical software (Version 8) by nonlinear regression analysis.
The LC-MS/MS instrument was the same as the system used to determine TNBG-5602. The mobile phase consisted of 0.1% formic acid, aqueous solution (Solvent A), and acetonitrile (Solvent B) at a flow rate of 0.3 mL min^−1. […]
For IC50 assessment, the inhibition curves were established by nonlinear regression analysis plotting the relative activity (y) versus the logarithm of the TNBG-5602 concentration (x). The inhibition curve and the half-maximal inhibitory concentration of TNBG-5602 against each CYP isoform were analyzed using the GraphPad Prism statistical software (version 8). […]

[2] = rats, i.v. 4.8 mg kg^−1, non-compartment model, mean, n = 5
[3] = rats, i.v. 4.8 mg kg^−1, two-compartment model, mean, n = 5

T1 sequence (P11712 whole entry): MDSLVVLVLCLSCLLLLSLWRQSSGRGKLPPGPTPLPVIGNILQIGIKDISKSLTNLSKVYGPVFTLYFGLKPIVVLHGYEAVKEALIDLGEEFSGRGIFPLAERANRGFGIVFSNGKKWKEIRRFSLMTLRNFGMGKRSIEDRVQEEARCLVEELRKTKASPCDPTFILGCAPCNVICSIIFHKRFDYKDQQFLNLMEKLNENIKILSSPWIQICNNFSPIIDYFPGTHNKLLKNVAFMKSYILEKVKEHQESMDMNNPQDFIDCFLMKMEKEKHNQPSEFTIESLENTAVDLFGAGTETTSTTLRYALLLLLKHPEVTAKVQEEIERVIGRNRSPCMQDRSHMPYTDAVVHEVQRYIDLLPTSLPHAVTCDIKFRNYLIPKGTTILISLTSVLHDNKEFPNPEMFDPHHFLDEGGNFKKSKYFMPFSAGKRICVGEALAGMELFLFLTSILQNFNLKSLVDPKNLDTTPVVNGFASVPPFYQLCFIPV

Structure (SMILES): CN(C)CCN1CC2c3ccccc3CCN2c2nc3ccccc3nc21 (centres unmarked) [TNBG-5602]
- k el ([1]; rat, in vivo, iv, 4.8 mg/kg): 6.67e-05 s⁻¹
- half-life ([1]; rat, plasma, iv, 4.8 mg kg^−1, half-life, rats): ~12 h
- Cmax ([1]; rat, plasma, iv, 4.8 mg/kg): 171 ng/mL
- MRT inf ([1]; rat, plasma, iv, 4.8 mg/kg): 15.5 h
- MRT last ([1]; rat, plasma, iv, 4.8 mg/kg): 7.13 h
- Vd ([1]; rat, plasma, iv, 4.8 mg/kg): 20.2 L
- clearance ([1]; rat, plasma, iv, 4.8 mg/kg, CL (clearance), rats, i.v. 4.8 mg kg^−1, two-compartment model, mean, n = 5): 22 mL/min
- clearance ([1]; rat, plasma, iv, 4.8 mg/kg, CLt (total body clearance), rats, i.v. 4.8 mg kg^−1, non-compartment model, mean, n = 5): 19 mL/min
- Tmax ([1]; rat, plasma, iv, 4.8 mg/kg, Tmax, rats, i.v. 4.8 mg kg^−1, non-compartment model, mean, n = 5): ≤ 5 min
- half-life ([1]; rat, plasma, iv, 4.8 mg/kg, t1/2, rats, i.v. 4.8 mg kg^−1, non-compartment model, mean, n = 5): 11.6 h
- half-life ([1]; rat, plasma, iv, 4.8 mg/kg, t1/2β (elimination half-life), rats, i.v. 4.8 mg kg^−1, two-compartment model, mean, n = 5): 11.8 h
- AUC(0–t) [1, 2]: 45513 µg·min/L
- AUC(0–∞) [1, 2]: 56248 µg·min/L
- t1/2 [1, 2]: 11.56 h
- A (zero-time intercept of the α distribution phase) [1, 3]: 127.2 µg/L
- B (zero-time intercept of the elimination phase) [1, 3]: 57.6 µg/L
- K12 (transfer rate constant central to peripheral compartment) [1, 3]: 0.028 min⁻¹
- K21 (transfer rate constant peripheral to central compartment) [1, 3]: 0.019 min⁻¹
- Vc (apparent volume of the central compartment) [1, 3]: 6.985 L
- Vp (apparent volume of the peripheral compartment) [1, 3]: 13.2 L
- t1/2α [1, 3]: 0.457 h
- distribution volume of the peripheral compartment relative to the central compartment ([1]; rats, i.v., two-compartment model): 1.88 fold
- in vivo clearance as % liver blood flow in rats ([1]; rats, i.v., liver blood flow ref 19): 200%
- apparent volume of distribution relative to total body water in rats ([1]; rats, i.v., total body water ref 19): approximately 155 fold
- apparent clearance rate from the central compartment to the peripheral compartment ([1]; rats, single i.v. administration): 0.028 ± 0.033 L/min
- IC50 (CYP2C9): 9.63 µM

From article PMC9024597, “The Biological Fate of a Novel Anticancer Drug Candidate TNBG-5602: Metabolic Profile, Interaction with CYP450, and Pharmacokinetics in Rats” (Molecules, 2022)
